Data published in patent publication US20140228278A1, “ANTIBIOTICS AND METHODS FOR MANUFACTURING THE SAME” (priority 2011, published 2014).
Converted amounts (≈) assume the structure as drawn.

How the values were obtained:
[1] = test system: Bacillus cereus ATCC14579; type: cell-based; parameters: key: ++: inhibition; +: weak inhibition; −: no inhibition
[2] = test system: Bacillus licheniformis ATCC9789; type: cell-based; parameters: key: ++: inhibition; +: weak inhibition; −: no inhibition
Paenibacillus polymyxa = type: cell-based; parameters: key: ++: inhibition; +: weak inhibition; −: no inhibition
Staphylococcus aureus = experiment: Agar bioassay, growth suppression seen as clear zone; type: cell-based; parameters: key: ++: inhibition; +: weak inhibition; −: no inhibition; conditions: indicator strain Staphylococcus aureus
B. amylo. FZB42 = type: cell-based, Bacillus amyloliquefaciens
Klebsiella terrigena = experiment: Agar bioassay, growth suppression seen as clear zone; type: cell-based; parameters: key: ++: inhibition; +: weak inhibition; −: no inhibition; conditions: indicator strain Klebsiella terrigena
[3] = test system: Staphylococcus aureus st. NRS384/USA300 [MRSA]; type: cell-based
Bacillus subtilis CU1065 = experiment: Agar bioassay, growth suppression seen as clear zone; type: cell-based; parameters: key: ++: inhibition; +: weak inhibition; −: no inhibition; conditions: indicator strain Bacillus subtilis CU1065
B. anthracis = type: cell-based, Bacillus anthracis
B. pumilus ATCC 7061 = type: cell-based, Bacillus pumilus
Bacillus megaterium 7A1 = type: cell-based; parameters: key: ++: inhibition; +: weak inhibition; −: no inhibition
[4] = test system: B. anthracis strain Sterne; type: cell-based, Bacillus anthracis
Erwinia caratovora = type: cell-based; parameters: key: ++: inhibition; +: weak inhibition; −: no inhibition
Bacillus subtilis HB0042 = experiment: Agar bioassay, growth suppression seen as clear zone; type: cell-based; parameters: key: ++: inhibition; +: weak inhibition; −: no inhibition; conditions: indicator strain Bacillus subtilis HB0042
Micrococcus luteus = type: cell-based; parameters: key: ++: inhibition; +: weak inhibition; −: no inhibition
Bacillus subtilis 168 = experiment: Agar bioassay, growth suppression seen as clear zone; type: cell-based; parameters: key: ++: inhibition; +: weak inhibition; −: no inhibition; conditions: indicator strain Bacillus subtilis 168
Bacillus brevis ATCC8246 = type: cell-based; parameters: key: ++: inhibition; +: weak inhibition; −: no inhibition
[5] = test system: Enterococcus faecalis st. U503 [VRE]; type: cell-based
Pseudomonas sp. = experiment: Agar bioassay, growth suppression seen as clear zone; type: cell-based; parameters: key: ++: inhibition; +: weak inhibition; −: no inhibition; conditions: indicator strain Pseudomonas sp.
Arthrobacter sp. = type: cell-based; parameters: key: ++: inhibition; +: weak inhibition; −: no inhibition
Listeria monocytogenes = type: cell-based
[6] = test system: B. anthracis strain Sterne; type: cell-based, Bacillus anthracis; remark: listed apart in the source
[7] = test system: any other tested bacterium; type: cell-based
Bacillus sphaericus = type: cell-based; parameters: key: ++: inhibition; +: weak inhibition; −: no inhibition
Bacillus pumilus = type: cell-based; parameters: key: ++: inhibition; +: weak inhibition; −: no inhibition
[8] = test system: Paenibacillus granivorans; type: cell-based; parameters: key: ++: inhibition; +: weak inhibition; −: no inhibition
Streptococcus pyogenes = type: cell-based
E. coli K12 = experiment: Agar bioassay, growth suppression seen as clear zone; type: cell-based; parameters: key: ++: inhibition; +: weak inhibition; −: no inhibition; conditions: indicator strain E. coli K12
B. amylo. (NRRL B-14393) = type: cell-based, Bacillus amyloliquefaciens

Compound: CC[C@H](C)[C@H](NC(=O)c1nc(-c2nc(-c3csc(-c4nc(-c5csc(C(CCCN=C(N)N)N(C)C)n5)oc4C)n3)oc2C)oc1C)C(=O)N[C@H](c1nc(-c2nc(-c3nc(-c4nc(C5=NC(C(=O)N[C@@H](Cc6ccccc6)C(=O)O)C(C)O5)co4)co3)co2)co1)[C@@H](C)CC (stereo partly drawn) [PZN, plantazolicin]
- Degree of inhibition in a bioassay [1]: +
- Degree of inhibition in a bioassay [2]: +
- Degree of inhibition in a bioassay (Paenibacillus polymyxa): −
- Degree of inhibition in a bioassay (Staphylococcus aureus): −
- Susceptibility to the action of PZN (B. amylo. FZB42): no observable inhibition
- Degree of inhibition in a bioassay (Klebsiella terrigena): −
- Growth inhibition in microbroth dilution bioassay [3]: unaffected
- Degree of inhibition in a bioassay (Bacillus subtilis CU1065): +
- Cell morphology by DIC microscopy (B. anthracis): massive lysis
- Susceptibility to the action of PZN (B. pumilus ATCC 7061): no observable inhibition
- Degree of inhibition in a bioassay (Bacillus megaterium 7A1): ++
- Mode of action (bactericidal) on reculturing of treated cells in the absence of PZN [4]: bactericidal
- Degree of inhibition in a bioassay (Erwinia caratovora): −
- Degree of inhibition in a bioassay (Bacillus subtilis HB0042): ++
- Degree of inhibition in a bioassay (Micrococcus luteus): +
- Degree of inhibition in a bioassay (Bacillus subtilis 168): +
- Degree of inhibition in a bioassay (Bacillus brevis ATCC8246): +
- Growth inhibition in microbroth dilution bioassay [5]: unaffected
- Degree of inhibition in a bioassay (Pseudomonas sp.): −
- Degree of inhibition in a bioassay (Arthrobacter sp.): −
- Growth inhibition in microbroth dilution bioassay (Listeria monocytogenes): unaffected
- Growth inhibition / activity against B. anthracis in microbroth dilution bioassay [6]: potent growth inhibition
- MIC99 [6]: 4 mg/L (≈ 2.99 µM)
- Inhibition zones in agar diffusion bioassay [7]: inhibition zones were not observed
- Degree of inhibition in a bioassay (Bacillus sphaericus): +
- Degree of inhibition in a bioassay (Bacillus pumilus): −
- Degree of inhibition in a bioassay [8]: +
- Growth inhibition in microbroth dilution bioassay (Streptococcus pyogenes): only inhibited by very high concentrations
- Degree of inhibition in a bioassay (E. coli K12): −
- Susceptibility to the action of PZN (B. amylo. (NRRL B-14393)): completely resistant
